Experimental data taken from US6319702A, “Nucleic acids encoding mutant human carboxypeptidase A enzymes” (Glaxo Wellcome, Inc., priority 1993, dated 2001).
Read-outs that look alike come from different tables or passages of the source.

Tests used:
[1] = Stability and biodistribution of prodrugs in vivo (HPLC of plasma and tissues); parameters: species or system mice (CD-1 nude; BALB/C where indicated); conditions: for concentration of prodrug in cecum / concentration of prodrug in feces / concentration of prodrug in kidney / concentration of prodrug in large intestine / concentration of prodrug in liver / concentration of prodrug in small intestine / concentration of prodrug in spleen / concentration of prodrug in tumor / remaining at 0.5 h / remaining at 2 h / concentration at 0.5 h / concentration at 2 h: 50 mg/kg i.p. or i.v., CD-1 nude mice; for remaining at 0.5 h / remaining at 2 h / concentration at 0.5 h / concentration at 2 h: mouse; for concentration at 0.5 h / concentration at 2 h: read-out: concentration of prodrug in plasma
268gly = assay: Enzyme kinetics of prodrugs with 268gly mutant of human CPA1 (coupled assay); assay type: biochemical; conditions: 268gly; 25° C., pH 7.4
Excerpt: (§1) As indicated herein, the in vivo stable prodrug of the present invention should be a better substrate for a mutant enzyme than the corresponding wild type enzyme in order for the stable prodrug to be activated selectively at the tumour. […] The most relevant kinetic constant in the table is the kcat/Km, which provides an estimate of the second order rate constant for the enzyme catalyzed conversion of prodrug to methotrexate. Thus, the larger the kcat/Km, the more efficient the enzyme with a particular substrate. […] Thus, the single mutation at 268 from thr to gly converted very poor substrates in the wild type enzyme to excellent substrates in the mutant enzyme. […] Thus, the compounds are much better substrates for the mutant enzyme than the wild type enzyme which permits very specific tumor targeted activation of the nontoxic, stable prodrug to the active agent.
(§2) Kinetics were determined by a modification of the coupled assay of Kuefner, et al (1989) Biochemistry 28 2288-2297 in which the product MTX is converted by excess carboxypeptidase G to the pteroate of MTX. In this assay the reaction is followed spectrophotometrically at 315 nm; at this wavelength the change in molar absorbtivity for the coupled reaction was determined to be 9.57 mM^-1 cm^-1. Assays were performed at 25° C. in 25 mM tris-HCl, 100 mM NaCl, pH 7.4. Prodrugs were preincubated at 25° C. with buffer and 17 milliunits of Sigma #C-9658 carboxypeptidase G in 1 ml total volume. Assay was initiated with carboxypeptidase A or the appropriate mutant. Initial velocities were obtained, and standard Michaelis-Menten calculations were used to determine kinetic constants (in Biochemistry, Lehninger, A. L. 1970, Worth Publishers, Inc, NY).

268ala = assay: Enzyme kinetics of prodrugs with 268ala mutant of human CPA1 (coupled assay); assay type: biochemical; conditions: 25° C., pH 7.4
Excerpt: as §1, §2

[2] = target: T1, wild type human carboxypeptidase A1 (Homo sapiens, UniProt P15085); assay: Enzyme kinetics of prodrugs with wild type human carboxypeptidase A1 (coupled assay); assay type: biochemical
T1 sequence (P15085 111-419): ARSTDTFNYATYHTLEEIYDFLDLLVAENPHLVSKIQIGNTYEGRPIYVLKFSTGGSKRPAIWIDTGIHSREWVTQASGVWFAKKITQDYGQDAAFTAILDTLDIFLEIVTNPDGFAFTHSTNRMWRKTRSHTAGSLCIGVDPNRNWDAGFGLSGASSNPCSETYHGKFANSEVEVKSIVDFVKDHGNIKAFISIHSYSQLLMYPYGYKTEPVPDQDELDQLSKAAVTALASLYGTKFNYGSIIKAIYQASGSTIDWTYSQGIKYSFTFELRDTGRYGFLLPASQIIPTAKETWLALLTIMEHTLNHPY
Excerpt: as §1, §2

[3] = cecum, 50 mg/kg, CECUM, 30 min, read-out: stability: percentage of material observed as intact prodrug, cecum
[4] = cecum, 50 mg/kg, CECUM, 120 min, read-out: stability: percentage of material observed as intact prodrug, cecum
[5] = kidney, 50 mg/kg, KIDNEY, 30 min, read-out: stability: percentage of material observed as intact prodrug, kidney
[6] = kidney, 50 mg/kg, KIDNEY, 120 min, read-out: stability: percentage of material observed as intact prodrug, kidney
[7] = large intestine, 50 mg/kg, LARGE INTESTINE, 30 min, read-out: stability: percentage of material observed as intact prodrug, large intestine
[8] = large intestine, 50 mg/kg, LARGE INTESTINE, 120 min, read-out: stability: percentage of material observed as intact prodrug, large intestine
[9] = liver, 50 mg/kg, LIVER, 30 min, read-out: stability: percentage of material observed as intact prodrug, liver (converted)
[10] = liver, 50 mg/kg, LIVER, 120 min, read-out: stability: percentage of material observed as intact prodrug, liver
[11] = plasma, 50 mg/kg, PLASMA, 30 min
[12] = plasma, 50 mg/kg, PLASMA, 30 min, read-out: stability: percentage of material observed as intact prodrug, plasma
[13] = plasma, 50 mg/kg, PLASMA, 120 min
[14] = plasma, 50 mg/kg, PLASMA, 120 min, read-out: stability: percentage of material observed as intact prodrug, plasma
[15] = small intestine, 50 mg/kg, SMALL INTESTINE, 30 min, read-out: stability: percentage of material observed as intact prodrug, small intestine
[16] = small intestine, 50 mg/kg, SMALL INTESTINE, 120 min, read-out: stability: percentage of material observed as intact prodrug, small intestine
[17] = spleen, 50 mg/kg, SPLEEN, 30 min, read-out: stability: percentage of material observed as intact prodrug, spleen
[18] = spleen, 50 mg/kg, SPLEEN, 120 min, read-out: stability: percentage of material observed as intact prodrug, spleen
[19] = tumor, 50 mg/kg, TUMOR, 30 min, read-out: stability: percentage of material observed as intact prodrug, tumor
[20] = tumor, 50 mg/kg, TUMOR, 120 min, read-out: stability: percentage of material observed as intact prodrug, tumor

SMILES	concentration of prodrug in cecum ([1]; CECUM, 30 min) [nmol/g]	concentration of prodrug in kidney ([1]; KIDNEY, 30 min) [nmol/g]	concentration of prodrug in kidney ([1]; KIDNEY, 120 min) [nmol/g]	concentration of prodrug in large intestine ([1]; LARGE INTESTINE, 30 min) [nmol/g]	concentration of prodrug in large intestine ([1]; LARGE INTESTINE, 120 min) [nmol/g]	concentration of prodrug in liver ([1]; LIVER, 30 min) [nmol/g]	concentration of prodrug in liver ([1]; LIVER, 120 min) [nmol/g]	concentration of prodrug in small intestine ([1]; SMALL INTESTINE, 30 min) [nmol/g]	concentration of prodrug in spleen ([1]; SPLEEN, 30 min) [nmol/g]	concentration of prodrug in tumor ([1]; TUMOR, 30 min) [nmol/g]	remaining at 0.5 h [1, 3] [%]	remaining at 0.5 h [1, 5] [%]	remaining at 0.5 h [1, 7] [%]	remaining at 2 h [1, 8] [%]	remaining at 0.5 h [1, 9] [%]	remaining at 2 h [1, 10] [%]	concentration at 0.5 h [1, 11] [µM]	remaining at 0.5 h [1, 12] [%]	concentration at 2 h [1, 13] [µM]	remaining at 2 h [1, 14] [%]	also measured
CN(Cc1cnc2nc(N)nc(N)c2n1)c1ccc(C(=O)N[C@@H](CCC(=O)O)C(=O)N[C@@H](CC(=O)O)C(=O)O)cc1 [Prodrug 6]	7.5	93.4	12.6	5.7	19.4	287.8	161.6	21.3	3.4	7.5	82	98	100	65	97	93	46.7	100	2	100	concentration of prodrug in cecum ([1]; CECUM, 120 min): 0.8 nmol/g; concentration of prodrug in feces ([1]; FECES, 30 min): 42 nmol/g; concentration of prodrug in feces ([1]; FECES, 120 min): 207 nmol/g; concentration of prodrug in small intestine ([1]; SMALL INTESTINE, 120 min): 14.2 nmol/g; concentration of prodrug in spleen ([1]; SPLEEN, 120 min): 0.0 nmol/g; concentration of prodrug in tumor ([1]; TUMOR, 120 min): 0.8 nmol/g; remaining at 2 h [1, 4]: 59%; remaining at 0.5 h ([1]; feces, 50 mg/kg, FECES, 30 min, read-out: stability: percentage of material observed as intact prodrug, feces (converted)): 21%; remaining at 2 h ([1]; feces, 50 mg/kg, FECES, 120 min, read-out: stability: percentage of material observed as intact prodrug, feces): 52%; remaining at 2 h [1, 6]: 98%; remaining at 0.5 h [1, 15]: 86%; remaining at 2 h [1, 16]: 54%; remaining at 0.5 h [1, 17]: 70%; remaining at 2 h [1, 18]: 0%; remaining at 0.5 h [1, 19]: 82%; remaining at 2 h [1, 20]: 59%
CN(Cc1cnc2nc(N)nc(N)c2n1)c1ccc(C(=O)N[C@@H](CCC(=O)O)C(=O)N[C@@H](Cc2ccccc2C(=O)O)C(=O)O)cc1 [Prodrug 7]	6.9	55.4	3.8	12.1	91.8	171.9	7.5	127.4	12.4	6.9	100	100	100	100	100	89	51.4	100	0.2	100	concentration of prodrug in cecum ([1]; CECUM, 120 min): 1.5 nmol/g; concentration of prodrug in small intestine ([1]; SMALL INTESTINE, 120 min): 24.1 nmol/g; concentration of prodrug in spleen ([1]; SPLEEN, 120 min): 1.0 nmol/g; concentration of prodrug in tumor ([1]; TUMOR, 120 min): 1.5 nmol/g; remaining at 2 h [1, 4]: 100%; remaining at 2 h [1, 6]: 100%; remaining at 0.5 h [1, 15]: 100%; remaining at 2 h [1, 16]: 97%; remaining at 0.5 h [1, 17]: 100%; remaining at 2 h [1, 18]: 100%; remaining at 0.5 h [1, 19]: 100%; remaining at 2 h [1, 20]: 100%
CN(Cc1cnc2nc(N)nc(N)c2n1)c1ccc(C(=O)N[C@@H](CCC(=O)O)C(=O)N[C@@H](Cc2ccccc2)C(=O)O)cc1 [Prodrug 10, N-(4-(((2,4-diamino-6-pteridinyl)methyl)methylamino)benzoyl)-L-glutam-1-yl-L-pheylalanine, reference compound]	3.0	26.9	0.0	19.3	1.1	335.1	0.6	17.3	19.9	3.0	65	100	65.3	21.6	94.4	7.55	17.8	30.2	1.1	2.1	Km (268gly): 0.3 µM; kcat (268gly): 2.2 s⁻¹; stability in vivo (in words) ([1]; mice, 50 mg/kg): not stable in vivo; remaining at 0.5 h [1, 15]: 16%; remaining at 2 h [1, 16]: 0%; remaining at 0.5 h [1, 17]: 80.4%; remaining at 0.5 h [1, 19]: 65%; Km (268ala): 0.9 µM; kcat (268ala): 2 s⁻¹; substrate for wild type CPA (in words) [2]: good substrate
